Measured values published in patent publication US7323597B2, “Method for the production of diaminoxylene by continuous hydrogenation of liquid phthalonitrile” (BASF Aktiengesellschaft, priority 2003, dated 2008).

Assay: Solubility of IPN in MXDA
Assay type: physicochemical
Settings: in MXDA (meta-xylylenediamine) as solvent, at 70° C.

For N#Cc1cccc(C#N)c1 [IPN, 1,3-dicyanobenzene], the “solubility of IPN in MXDA” value was “approx. 20 % by weight”.
